The source made the active and inactive calls. The calls are words filed in the database; no cut-off is given here.
Experiments:
Format in all cases: functional, cell-based
[1] = test system: MIA PaCa-2; test: Induction of autophagy in human MIA PaCa-2 cells assessed as accumulation of WIP11 marker gene expression at […] incubated for 72 hrs by Western blot analysis
[2] = test system: MIA PaCa-2; test: Induction of autophagy in human MIA PaCa-2 cells assessed as accumulation of LC3B marker gene expression at […] incubated for 72 hrs by Western blot analysis
[3] = test system: MIA PaCa-2; test: Induction of autophagy in human MIA PaCa-2 cells assessed as accumulation of GABARAPL1 marker gene expression at […] incubated for 72 hrs by Western blot analysis
[4] = test system: MIA PaCa-2; test: Cytotoxicity against human MIA PaCa-2 cells assessed as inhibition of cell growth incubated for 72 hrs by MTT assay; settings: MIA PaCa-2, 72 h

Compound: CC1=C(CC(=O)O)c2cc(F)ccc2/C1=C\c1ccc([S+](C)[O-])cc1 (centres undefined)
- Activity [1]: Active
- Activity [2]: Active
- Activity [3]: Active
- IC50 [4]: 300 µM
